Experiments:
[1] = target: T1, Pro1 (γ-glutamyl kinase, GK) (Saccharomyces cerevisiae, UniProt P32264); assay: PK/LDH-coupled ADP production, NADH oxidation at […] nm; format: biochemical; conditions: 10 mM MgCl2, 100 mM HEPES-NaOH pH 7.4, 30 °C, no proline
T1 sequence (P32264 1-428): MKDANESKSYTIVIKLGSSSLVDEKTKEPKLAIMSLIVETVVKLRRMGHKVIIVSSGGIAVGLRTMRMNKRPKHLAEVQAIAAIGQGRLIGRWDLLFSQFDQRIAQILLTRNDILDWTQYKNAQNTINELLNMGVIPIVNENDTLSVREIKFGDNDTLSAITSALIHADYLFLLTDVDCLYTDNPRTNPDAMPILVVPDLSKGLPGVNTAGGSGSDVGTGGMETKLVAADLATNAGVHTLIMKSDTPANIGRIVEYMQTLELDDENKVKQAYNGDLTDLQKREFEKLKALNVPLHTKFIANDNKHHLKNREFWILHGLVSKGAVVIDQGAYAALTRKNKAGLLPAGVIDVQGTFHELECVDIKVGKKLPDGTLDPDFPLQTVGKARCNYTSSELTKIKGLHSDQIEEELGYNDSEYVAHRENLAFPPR

[2] = target: Pro1 (γ-glutamyl kinase, GK) (Saccharomyces cerevisiae, UniProt P32264, D143A); assay: biochemical; conditions: read-out: relative activity at 500 mM proline
[3] = target: Pro1 (γ-glutamyl kinase, GK) (Saccharomyces cerevisiae, UniProt P32264, I150T); assay: biochemical; conditions: read-out: relative activity at 500 mM proline
[4] = target: Pro1 (γ-glutamyl kinase, GK) (Saccharomyces cerevisiae, UniProt P32264, Q79H); assay: biochemical; conditions: read-out: relative activity at 500 mM proline
Sequence of Pro1 (γ-glutamyl kinase, GK) (Saccharomyces cerevisiae, UniProt P32264, Q79H) (P32264 whole entry Q79H): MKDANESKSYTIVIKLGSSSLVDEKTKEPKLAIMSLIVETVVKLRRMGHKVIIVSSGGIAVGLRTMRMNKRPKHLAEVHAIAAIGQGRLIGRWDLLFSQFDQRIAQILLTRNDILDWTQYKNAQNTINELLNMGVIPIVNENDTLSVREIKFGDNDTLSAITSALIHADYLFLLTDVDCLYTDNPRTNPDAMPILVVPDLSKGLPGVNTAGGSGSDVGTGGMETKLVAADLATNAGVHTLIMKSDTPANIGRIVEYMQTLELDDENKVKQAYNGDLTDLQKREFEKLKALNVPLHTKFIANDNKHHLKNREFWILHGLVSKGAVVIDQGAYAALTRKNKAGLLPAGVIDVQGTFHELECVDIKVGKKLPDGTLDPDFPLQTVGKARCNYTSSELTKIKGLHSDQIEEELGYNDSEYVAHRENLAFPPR

Sequence of Pro1 (γ-glutamyl kinase, GK) (Saccharomyces cerevisiae, UniProt P32264, I150T) (P32264 whole entry I150T): as the sequence (P32264 whole entry Q79H) above, with H79Q, I150T counted along it
Sequence of Pro1 (γ-glutamyl kinase, GK) (Saccharomyces cerevisiae, UniProt P32264, D143A) (P32264 whole entry D143A): as the sequence (P32264 whole entry Q79H) above, with H79Q, D143A counted along it

Which “PK/LDH-coupled ADP production, NADH oxidation at 340 nm” value ([1]; 400 mM sodium glutamate, ATP 5 mM) does the source give for `Nc1ncnc2c1ncn2[C@@H]1O[C@H](COP(=O)(O)OP(=O)(O)OP(=O)(O)O)[C@@H](O)[C@H]1O` [ATP] here?
The value was “GK activity was measured by the production of ADP in an enzyme-coupled system”.

How did the activity at 500000 µM [2] turn out when `O=C(O)[C@@H]1CCCN1` [proline] was run?
The activity at 500000 µM was roughly 95%.

What about the activity at 500000 µM [3] of the same compound?
The activity at 500000 µM was 50%.

And the activity at 500000 µM [4]?
The activity at 500000 µM was roughly 96%.

Which “PK/LDH-coupled ADP production, NADH oxidation at 340 nm” value ([1]; 5 mM ATP, glutamate 400 mM) does the source give for `N[C@@H](CCC(=O)O)C(=O)O` [sodium glutamate] here?
The value was “sodium glutamate was added to initiate the enzymatic reaction”.

Source: PMC8472793 (Microorganisms, 2021)
